# Assay results reported in patent US8809583B2, “Methods for producing isomers of muconic acid and muconate salts” (Amyris, Inc., priority 2010, dated 2014).
# Tests used:
# Type in all cases: physicochemical
# [1] = Precipitation of cis,trans-muconate from clarified broth at different pH values
# Text: Following isomerization (e.g., as in Example 8), broth containing cis,trans-muconic acid was cooled to approximately ambient temperature and the cells, cell debris and precipitated solids were removed from the culture broth by centrifugation. Alternatively, such solids can be removed by filtration (e.g., through a 100 kD SARTOCON® Slice cassette). The cell-free broth was then clarified by filtration (e.g., through a 10 kD SARTOCON® Slice cassette), to remove proteins. […]
# [2] = Solvent extraction of slurry of cis,trans-muconic acid in M9 salts (simulated broth) acidified to pH 3.0, precipitate left in; settings: 63.34 g/L incl. precipitate
# Experimental: (§1) To individual 50 mL conical centrifuge tubes each containing 15 mL of the filtered broth were added 15 mL of each solvent listed in tables below. Each tube was agitated for two minutes and the organic and aqueous phases allowed to separate. The aqueous layer was separated from the solvent layer by pipette and placed into a new 50 mL conical tube. Both the aqueous and solvent phases of each extraction were analyzed for muconic acid using HPLC. A second extraction was performed on each of the separated aqueous layers using fresh solvent. Again the samples were agitated, allowed to settle and the aqueous and organic phases were separated and analyzed.
# To test the ability of solvent extraction to recover cis,trans-muconic acid after acidification to sufficiently low levels that significant amounts of the cis,trans-muconic acid has precipitated, a solution of cis,trans-muconic acid in a solution of M9 salts was used to simulate a fermentation broth. 15 grams of cis,trans-muconic acid were added to 250 mL of M9 salts giving an approximate titer of 60 g/L. This was achieved by raising the pH to 7.0 using sodium hydroxide. The broth was then acidified with sulfuric acid to pH 3.0 causing the cis,trans-muconic acid to precipitate. The solid precipitate was left in the acidified mixture, and the entire slurry was extracted twice with solvent as described above.
# [3] = Solubility of muconic acid isomers in organic solvents
# [4] = Solvent extraction of cis,trans-muconic acid from acidified, filtered fermentation broth (HPLC of both phases); settings: pH about 3
# Experimental: Fermentation broth was obtained that had been isomerized to cis,trans-muconic acid, and was acidified to a pH of about 3. The solid cis,trans-muconic acid was removed by filtration to leave acidified fermentation broth containing approximately 5 to 10 grams per Liter of cis,trans-muconic acid.
# as §1
# Different broth samples with different amounts of cis,trans-muconic acid were used to generate the results in each table.
# [5] = broth 4.86 g/L, cyclohexanone, first line (extraction number not given)
# [6] = broth 4.86 g/L, cyclohexanone, second line (extraction number not given)
# [7] = broth 4.86 g/L, ethyl hexanol, first line (extraction number not given)
# [8] = broth 4.86 g/L, ethyl hexanol, second line (extraction number not given)
# [9] = broth 4.86 g/L, isoalcohol, first line (extraction number not given)
# [10] = broth 4.86 g/L, isoalcohol, second line (extraction number not given)
# [11] = broth 4.86 g/L, xylene, first line (extraction number not given)
# [12] = broth 4.86 g/L, xylene, second line (extraction number not given)
# [13] = broth 9.82 g/L, 1-butanol, extraction 1
# [14] = broth 9.82 g/L, 1-butanol, extraction 2
# [15] = broth 9.82 g/L, Octanol, extraction 1
# [16] = broth 9.82 g/L, Octanol, extraction 2
# [17] = broth 9.82 g/L, tBME, extraction 1
# [18] = broth 9.82 g/L, tBME, extraction 2
# [19] = broth 10.69 g/L, 1-pentanol, extraction 1
# [20] = broth 10.69 g/L, 1-pentanol, extraction 2
# [21] = broth 10.69 g/L, MEK, extraction 1
# [22] = broth 10.69 g/L, MEK, extraction 2
# [23] = broth 10.69 g/L, MeTHF, extraction 1
# [24] = broth 10.69 g/L, MeTHF, extraction 2
# [25] = broth 10.69 g/L, cyclohexane, extraction 1
# [26] = broth 10.69 g/L, cyclohexane, extraction 2
# [27] = broth 10.69 g/L, cylcohexanol, extraction 1
# [28] = broth 10.69 g/L, cylcohexanol, extraction 2
# [29] = broth 10.69 g/L, decalin, extraction 1
# [30] = broth 10.69 g/L, decalin, extraction 2
# [31] = broth 10.69 g/L, n-butyl acetate, extraction 1
# [32] = broth 10.69 g/L, n-butyl acetate, extraction 2
compound,measurement,setting,value
"O=C(O)/C=C\C=C\C(=O)O [cis,trans-muconic acid]",% ctMA in filtrate,[1]; pH 2.0,18 weight %
same,% ctMA in filtrate,[1]; pH 2.5,18 weight %
same,ctMA in precipitate,[1]; pH 2.5,64 weight %
same,% ctMA in filtrate,[1]; pH 3.0,22 weight %
same,ctMA in precipitate,[1]; pH 3.0,61 weight %
same,"cis,trans-muconic acid originally in the solution that precipitates","[1]; pH 3, Table 2",about 60%
same,"cis,trans-muconic acid remaining in solution","[1]; pH 3, Table 2",approximately 40%
same,% ctMA in filtrate,[1]; pH 3.5,26 weight %
same,ctMA in precipitate,[1]; pH 3.5,58 weight %
same,% ctMA in filtrate,[1]; pH 4.0,75 weight %
same,ctMA in precipitate,[1]; pH 4.0,22 weight %
same,% ctMA in filtrate,[1]; pH 4.7,100 weight %
same,ctMA in precipitate,[1]; pH 4.7,0 weight %
same,Muconic acid in aqueous phase,"[2]; MeTHF, extraction 1",2.03 g/L
same,Muconic acid in organic phase,"[2]; MeTHF, extraction 1",47.10 g/L
same,Partition coefficient,"[2]; MeTHF, extraction 1",23.20
same,Muconic acid in aqueous phase,"[2]; MeTHF, extraction 2",0.11 g/L
same,Muconic acid in organic phase,"[2]; MeTHF, extraction 2",1.64 g/L
same,Partition coefficient,"[2]; MeTHF, extraction 2",14.91
same,Muconic acid in aqueous phase,"[2]; cyclohexanol, extraction 1",10.53 g/L
same,Muconic acid in organic phase,"[2]; cyclohexanol, extraction 1",51.37 g/L
same,Partition coefficient,"[2]; cyclohexanol, extraction 1",4.88
same,Muconic acid in aqueous phase,"[2]; cyclohexanol, extraction 2",2.71 g/L
same,Muconic acid in organic phase,"[2]; cyclohexanol, extraction 2",3.75 g/L
same,Partition coefficient,"[2]; cyclohexanol, extraction 2",1.38
same,Muconic acid in aqueous phase,"[2]; cyclohexanone, extraction 1",2.92 g/L
same,Muconic acid in organic phase,"[2]; cyclohexanone, extraction 1",51.05 g/L
same,Partition coefficient,"[2]; cyclohexanone, extraction 1",17.48
same,Muconic acid in aqueous phase,"[2]; cylcohexanone, extraction 2",0.20 g/L
same,Muconic acid in organic phase,"[2]; cylcohexanone, extraction 2",2.10 g/L
same,Partition coefficient,"[2]; cylcohexanone, extraction 2",10.50
same,Muconic acid in aqueous phase,"[2]; tBME, extraction 1",54.00 g/L
same,Muconic acid in organic phase,"[2]; tBME, extraction 1",0.00 g/L
same,Partition coefficient,"[2]; tBME, extraction 1",0.00
same,Muconic acid in aqueous phase,"[2]; tBME, extraction 2",59.88 g/L
same,Muconic acid in organic phase,"[2]; tBME, extraction 2",0.00 g/L
same,Partition coefficient,"[2]; tBME, extraction 2",0.00
same,solubility in organic solvents compared with the other isomers,[3],"more soluble in organic solvents than either of the cis,cis or trans,trans isomers"
same,Muconic acid in aqueous phase,[4]; [5],0.21 g/L
same,Muconic acid in organic phase,[4]; [5],6.11 g/L
same,Partition coefficient,[4]; [5],29.10
same,Muconic acid in aqueous phase,[4]; [6],0.23 g/L
same,Muconic acid in organic phase,[4]; [6],0.00 g/L
same,Partition coefficient,[4]; [6],large
same,Muconic acid in aqueous phase,[4]; [7],0.89 g/L
same,Muconic acid in organic phase,[4]; [7],3.83 g/L
same,Partition coefficient,[4]; [7],4.30
same,Muconic acid in aqueous phase,[4]; [8],0.20 g/L
same,Muconic acid in organic phase,[4]; [8],0.79 g/L
same,Partition coefficient,[4]; [8],3.95
same,Muconic acid in aqueous phase,[4]; [9],0.63 g/L
same,Muconic acid in organic phase,[4]; [9],4.87 g/L
same,Partition coefficient,[4]; [9],7.73
same,Muconic acid in aqueous phase,[4]; [10],0.04 g/L
same,Muconic acid in organic phase,[4]; [10],0.49 g/L
same,Partition coefficient,[4]; [10],12.25
same,Muconic acid in aqueous phase,[4]; [11],5.15 g/L
same,Muconic acid in organic phase,[4]; [11],0.00 g/L
same,Partition coefficient,[4]; [11],0.00
same,Muconic acid in aqueous phase,[4]; [12],4.82 g/L
same,Muconic acid in organic phase,[4]; [12],0.00 g/L
same,Partition coefficient,[4]; [12],0.00
same,Muconic acid in aqueous phase,[4]; [13],1.10 g/L
same,Muconic acid in organic phase,[4]; [13],6.26 g/L
same,Partition coefficient,[4]; [13],5.69
same,Muconic acid in aqueous phase,[4]; [14],0.27 g/L
same,Muconic acid in organic phase,[4]; [14],0.51 g/L
same,Partition coefficient,[4]; [14],1.89
same,Muconic acid in aqueous phase,[4]; [15],2.19 g/L
same,Muconic acid in organic phase,[4]; [15],5.40 g/L
same,Partition coefficient,[4]; [15],2.47
same,Muconic acid in aqueous phase,[4]; [16],1.52 g/L
same,Muconic acid in organic phase,[4]; [16],0.53 g/L
same,Partition coefficient,[4]; [16],0.35
same,Muconic acid in aqueous phase,[4]; [17],2.05 g/L
same,Muconic acid in organic phase,[4]; [17],6.53 g/L
same,Partition coefficient,[4]; [17],3.19
same,Muconic acid in aqueous phase,[4]; [18],0.72 g/L
same,Muconic acid in organic phase,[4]; [18],1.23 g/L
same,Partition coefficient,[4]; [18],1.71
same,Muconic acid in aqueous phase,[4]; [19],1.29 g/L
same,Muconic acid in organic phase,[4]; [19],8.29 g/L
same,Partition coefficient,[4]; [19],6.43
same,Muconic acid in aqueous phase,[4]; [20],0.30 g/L
same,Muconic acid in organic phase,[4]; [20],1.06 g/L
same,Partition coefficient,[4]; [20],3.53
same,Muconic acid in aqueous phase,[4]; [21],2.63 g/L
same,Muconic acid in organic phase,[4]; [21],9.65 g/L
same,Partition coefficient,[4]; [21],3.67
same,Muconic acid in aqueous phase,[4]; [22],0.84 g/L
same,Muconic acid in organic phase,[4]; [22],1.99 g/L
same,Partition coefficient,[4]; [22],2.37
same,Muconic acid in aqueous phase,[4]; [23],0.65 g/L
same,Muconic acid in organic phase,[4]; [23],7.40 g/L
same,Partition coefficient,[4]; [23],11.38
same,Muconic acid in aqueous phase,[4]; [24],0.00 g/L
same,Muconic acid in organic phase,[4]; [24],0.51 g/L
same,Partition coefficient,[4]; [24],large
same,Muconic acid in aqueous phase,[4]; [25],10.47 g/L
same,Muconic acid in organic phase,[4]; [25],0.00 g/L
same,Partition coefficient,[4]; [25],0.00
same,Muconic acid in aqueous phase,[4]; [26],10.20 g/L
same,Muconic acid in organic phase,[4]; [26],0.00 g/L
same,Partition coefficient,[4]; [26],0.00
same,Muconic acid in aqueous phase,[4]; [27],0.98 g/L
same,Muconic acid in organic phase,[4]; [27],8.62 g/L
same,Partition coefficient,[4]; [27],8.80
same,Muconic acid in aqueous phase,[4]; [28],0.28 g/L
same,Muconic acid in organic phase,[4]; [28],1.05 g/L
same,Partition coefficient,[4]; [28],3.75
same,Muconic acid in aqueous phase,[4]; [29],10.25 g/L
same,Muconic acid in organic phase,[4]; [29],0.00 g/L
same,Partition coefficient,[4]; [29],0.00
same,Muconic acid in aqueous phase,[4]; [30],12.99 g/L
same,Muconic acid in organic phase,[4]; [30],0.00 g/L
same,Partition coefficient,[4]; [30],0.00
same,Muconic acid in aqueous phase,[4]; [31],3.96 g/L
same,Muconic acid in organic phase,[4]; [31],6.78 g/L
same,Partition coefficient,[4]; [31],1.71
same,Muconic acid in aqueous phase,[4]; [32],2.02 g/L
same,Muconic acid in organic phase,[4]; [32],3.55 g/L
same,Partition coefficient,[4]; [32],1.76
